Experimental data from US20020165128A1, “Compositions and methods for proteolytically inactivating infectious agents using lactoferrin and related molecules” (priority 1998, published 2002).

Assays:
[1] = target: T1, lactoferrin-associated proteolysis of H. influenzae Hap (Homo sapiens, UniProt P02788); assay: Inhibition of lactoferrin-associated proteolysis of Hap by serine protease inhibitor; assay type: cell-based; conditions: 7.5 mM inhibitor in isopropanol, DB117/HapS243A
T1 construct: Lactoferrin amino acids are numbered beginning with the first residue in the mature protein (lacking the signal peptide); purchased Agennix Corporation; host or cells: Aspergillus awamori
T1 sequence (P02788 20-710): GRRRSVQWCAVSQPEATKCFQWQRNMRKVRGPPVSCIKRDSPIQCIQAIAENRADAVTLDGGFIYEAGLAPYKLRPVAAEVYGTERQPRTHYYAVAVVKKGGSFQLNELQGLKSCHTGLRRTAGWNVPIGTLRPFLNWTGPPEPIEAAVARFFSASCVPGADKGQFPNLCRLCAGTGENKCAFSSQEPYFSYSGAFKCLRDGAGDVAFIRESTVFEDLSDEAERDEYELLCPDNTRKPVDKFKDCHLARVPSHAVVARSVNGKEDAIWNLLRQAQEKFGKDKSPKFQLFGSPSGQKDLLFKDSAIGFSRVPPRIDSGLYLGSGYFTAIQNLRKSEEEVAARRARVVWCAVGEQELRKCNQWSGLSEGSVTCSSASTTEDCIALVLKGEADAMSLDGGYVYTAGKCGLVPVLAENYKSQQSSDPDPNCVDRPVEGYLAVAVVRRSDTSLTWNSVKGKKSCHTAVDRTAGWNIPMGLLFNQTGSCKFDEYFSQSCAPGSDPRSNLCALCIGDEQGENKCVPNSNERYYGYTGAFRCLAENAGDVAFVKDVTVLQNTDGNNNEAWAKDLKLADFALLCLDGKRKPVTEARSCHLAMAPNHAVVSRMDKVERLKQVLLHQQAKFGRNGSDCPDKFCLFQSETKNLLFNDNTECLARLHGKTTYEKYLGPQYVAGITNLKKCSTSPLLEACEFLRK
Procedure: To determine whether lactoferrin was functioning as a serine protease, the ability of phenylmethylsulfonyl fluoride (PMSF), a broad inhibitor of serine proteases, to inhibit degradation of Hap was examined. DB117/HapS243A was incubated in PBS (Lane 1), PBS with 430 nM A. awamori recombinant lactoferrin (Lane 2), PBS with 430 nM recombinant lactoferrin and 7.5% isopropanol (Lane 3), or PBS with recombinant lactoferrin and 7.5 mM PMSF in isopropanol (Lane 4). Whole cell lysates were prepared and examined by Western blot analysis with antiserum Rab 730, which reacts with the Hap preprotein, HapS, and Hap. The arrowhead indicates the Hap preprotein, and the arrows indicate Hap degradation products.

[2] = target: lactoferrin extraction of the IgA1 protease preprotein (Homo sapiens, UniProt P02788); assay type: cell-based; conditions: 10 mM inhibitor
Chain of lactoferrin extraction of the IgA1 protease preprotein (P02788 20-710): as above

With O=S(=O)(F)Cc1ccccc1 [PMSF, phenylmethylsulfonyl fluoride] the “inhibition of proteolysis of Hap produced by 430 nM recombinant lactoferrin” value [1] was “significantly inhibited” and the “inhibition of lactoferrin extraction of IgA1 protease preprotein” value [2] was “inhibited”.
